Laboratory results published in PubChem BioAssay (NCI).
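Five compound concentrations were applied to cells in 96-well plates for 48 hours; endpoints were derived by simple linear interpolation of the resulting dose-response curve. Definition used: TGI = concentration required for complete inhibition of growth.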

Legend:
Test in all cases: growth of human tumour cells (NCI), 48 h
[1] = system: 786-0 renal
[2] = system: A549 NSCLC
[3] = system: CCRF-CEM leukemia
[4] = system: HCT-116 colon
[5] = system: NCI-H226 lung
[6] = system: NCI-H23 lung
[7] = system: NCI-H460 lung
[8] = system: OVCAR-8 ovarian
[9] = system: SK-MEL-28 melanoma
[10] = system: SK-OV-3 ovarian
[11] = system: SNB-75 CNS
[12] = system: U251 CNS
[13] = system: UACC-257 melanoma
[14] = system: UACC-62 melanoma

SMILES	TGI [1]	TGI [2]	TGI [3]	TGI [4]	TGI [5]	TGI [6]	TGI [7]	TGI [8]	TGI [9]	TGI [10]	TGI [11]	TGI [12]	TGI [13]	TGI [14]
O=C1C=C(NCCc2cc(Br)c(O)c(Br)c2)C(=O)c2ncccc21	13.6 µM	4.79 µM	31.4 µM	11.8 µM	3.72 µM	1.66 µM	4.8 µM	27.3 µM	3.5 µM	33.4 µM	3.13 µM	20 µM	2.92 µM	2.93 µM
CC(CO)C1=CC(C#CCOCc2ccccc2)N(C(=O)Oc2ccccc2)c2ccccc21 (centres undefined)	> 100 µM	> 100 µM	> 100 µM	> 100 µM	> 100 µM	39.8 µM	91.8 µM	> 100 µM	> 100 µM	> 100 µM	> 100 µM	> 100 µM	88.2 µM	22.9 µM
COc1cc([C@@H]2c3[nH]c4ccccc4c3C(Nc3ccc([N+](=O)[O-])cc3)[C@H]3COC(=O)N23)cc(OC)c1O (some centres undefined)	0.665 µM	0.95 µM	0.325 µM	1.42 µM	0.532 µM	1.51 µM	1.44 µM	0.86 µM	0.704 µM	2.31 µM	1.66 µM	1.4 µM	11.6 µM	1.17 µM
CN(C)c1nc(-c2ccccc2)c(C(=O)c2c[nH]c3ccccc23)s1	> 47.6 µM	> 100 µM	> 60.5 µM	> 100 µM	> 100 µM	> 100 µM	> 79.2 µM	> 100 µM	> 100 µM	> 100 µM	7.71 µM	> 100 µM	> 100 µM	> 100 µM
O=c1[nH]nc(Cc2ccc(Cl)cc2)n1/N=C\CC/C=N\n1c(Cc2ccc(Cl)cc2)n[nH]c1=O	> 53.5 µM	> 100 µM	> 88.9 µM	> 100 µM	> 71 µM	> 100 µM	> 100 µM	37 µM	96.9 µM	> 100 µM	23.1 µM	46 µM	> 100 µM	45.7 µM
O=[N+]([O-])c1cc(-[n+]2cc([O-])on2)ccc1F	24 µM	33.4 µM	38.6 µM	28.6 µM	47 µM	33.5 µM	39.3 µM	30.9 µM	29.8 µM	35.8 µM	27 µM	32.4 µM	31.6 µM	30.8 µM
